Source: patent US20260207600A1, “METHODS OF TREATMENT WITH MYOSIN MODULATOR” (MYOKARDIA, INC., priority 2019, published 2026)

Biological target: T1, CYP2J2 (Homo sapiens, UniProt P51589)
T1 sequence (P51589 1-502): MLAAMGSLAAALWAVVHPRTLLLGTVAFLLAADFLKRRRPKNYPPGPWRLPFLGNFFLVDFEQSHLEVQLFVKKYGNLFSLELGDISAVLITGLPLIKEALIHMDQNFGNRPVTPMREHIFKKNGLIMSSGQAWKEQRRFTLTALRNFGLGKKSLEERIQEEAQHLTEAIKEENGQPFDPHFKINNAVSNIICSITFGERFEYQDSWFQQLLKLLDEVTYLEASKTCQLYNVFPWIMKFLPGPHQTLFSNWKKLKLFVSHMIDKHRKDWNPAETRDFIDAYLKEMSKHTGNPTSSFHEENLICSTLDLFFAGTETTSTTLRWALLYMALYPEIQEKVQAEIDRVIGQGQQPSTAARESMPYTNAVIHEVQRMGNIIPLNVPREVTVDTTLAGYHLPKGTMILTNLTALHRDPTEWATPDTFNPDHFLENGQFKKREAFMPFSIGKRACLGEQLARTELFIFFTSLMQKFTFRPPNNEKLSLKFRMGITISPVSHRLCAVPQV
Experiment: In vitro contribution of CYP enzymes to mavacamten metabolism
Assay type: in vitro ADME

Question: For `CC(C)n1c(=O)cc(N[C@@H](C)c2ccccc2)[nH]c1=O` [mavacamten, (S)-3-Isopropyl-6-((1-phenylethyl)amino)pyrimidine-2, 4(1H,3H)-dione], which “percent contribution to the metabolism of mavacamten” value is on record?
Answer: The value was “negligible”.
